Data on 28 molecules can be found in patent US20150218172A1, “Pyrrolo[2,3-D]Pyrimidine Tropomyosin-Related Kinase Inhibitors” (PFIZER LIMITED, priority 2012, published 2015).

T1 sequence (P04629 441-796): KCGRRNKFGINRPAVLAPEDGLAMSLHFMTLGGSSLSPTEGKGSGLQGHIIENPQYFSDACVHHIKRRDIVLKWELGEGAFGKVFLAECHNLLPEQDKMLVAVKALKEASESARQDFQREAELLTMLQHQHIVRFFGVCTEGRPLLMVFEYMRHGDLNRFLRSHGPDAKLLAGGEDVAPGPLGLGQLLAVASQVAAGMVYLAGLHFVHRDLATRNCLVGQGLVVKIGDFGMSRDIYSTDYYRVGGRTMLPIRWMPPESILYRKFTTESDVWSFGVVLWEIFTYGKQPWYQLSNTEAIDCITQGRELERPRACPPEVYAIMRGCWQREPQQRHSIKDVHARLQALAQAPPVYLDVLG

The assay has as its target T1, TrkA (Homo sapiens, UniProt P04629).
T1 construct: aa 441-796; His; purchased Invitrogen PV3144
Kind of assay: Isolated TRK enzyme assay (HTRF KinEASE-TK kit), PV3144 TrkA enzyme assay. The assay is classed as biochemical. The note with it: PV3144 TrkA enzyme assay, recombinant His-tagged cytoplasmic domain aa 441-796, 4 nM enzyme, 40 uM ATP; arithmetic mean where more than one reading; read-out: Trka enzyme (IC50). A digest of the protocol:
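Recombinant His-tagged cytoplasmic domain of human TrkA, preactivated with ATP for 20 min, then 20 min with compound before biotinylated TK substrate (1 uM final) at room temperature. HTRF read at 665/620 nm; % inhibition normalised to reference-compound and DMSO controls, IC50 from sigmoid fit, mean of replicates.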
(In TR-FRET formats the signal depends on donor and acceptor labels being close together.)
In general, IC50 refers to the concentration that inhibits the measured activity by half. As for `CC(C)n1cc(C(=O)c2cc(NC(=O)Cn3cc(C4CC4)nn3)ccn2)c2cnc(N)nc21` [Example 91, N-(2-{[2-amino-7-(propan-2-yl)-7H-pyrrolo[2,3-d]pyrimidin-5-yl]carbonyl}pyridin-4-yl)-2-(4-cyclopropyl-1H-1,2,3-triazol-1-yl)acetamide], the IC50 stood at 0.0445 µM.

Regarding `O=C(Cc1ccc(Cl)cc1)Nc1ccnc(C(=O)c2cn(C(CO)CO)c3ncncc23)c1` [Example 92, 2-(4-chlorophenyl)-N-(2-{[7-(1,3-dihydroxypropan-2-yl)-7H-pyrrolo[2,3-d]pyrimidin-5-yl]carbonyl}pyridin-4-yl)acetamide], the concentration for half-maximal inhibition (IC50) was 0.747 µM.

`O=C(Cc1ccc(C(F)(F)F)cc1)Nc1ccnc(C(=O)c2cn(C(CO)CO)c3ncncc23)c1` [Example 93, N-(2-{[7-(1,3-dihydroxypropan-2-yl)-7H-pyrrolo[2,3-d]pyrimidin-5-yl]carbonyl}pyridin-4-yl)-2-[4-(trifluoromethyl)phenyl]acetamide]: the IC50 was 0.164 µM.

For `O=C(Cc1ccc(C(F)(F)F)c(F)c1)Nc1ccnc(C(=O)c2cn(C(CO)CO)c3ncncc23)c1` [Example 94, N-(2-{[7-(1,3-dihydroxypropan-2-yl)-7H-pyrrolo[2,3-d]pyrimidin-5-yl]carbonyl}pyridin-4-yl)-2-[3-fluoro-4-(trifluoromethyl)phenyl]acetamide], the concentration for half-maximal inhibition (IC50) amounted to 0.922 µM.

Turning to `O=C(Cc1ccc(Cl)cc1Cl)Nc1ccnc(C(=O)c2cn(C(CO)CO)c3ncncc23)c1` [Example 95, 2-(2,4-dichlorophenyl)-N-(2-{[7-(1,3-dihydroxypropan-2-yl)-7H-pyrrolo[2,3-d]pyrimidin-5-yl]carbonyl}pyridin-4-yl)acetamide], the 50% inhibitory concentration (IC50) worked out at 0.146 µM.

For `O=C(Cc1cccc(C(F)(F)F)c1)Nc1ccnc(C(=O)c2cn(C(CO)CO)c3ncncc23)c1` [Example 96, N-(2-{[7-(1,3-dihydroxypropan-2-yl)-7H-pyrrolo[2,3-d]pyrimidin-5-yl]carbonyl}pyridin-4-yl)-2-[3-(trifluoromethyl)phenyl]acetamide], the 50% inhibitory concentration (IC50) is 0.139 µM.

With `O=C(Cc1cccc(OC(F)(F)F)c1)Nc1ccnc(C(=O)c2cn(C(CO)CO)c3ncncc23)c1` [Example 97, N-(2-{[7-(1,3-dihydroxypropan-2-yl)-7H-pyrrolo[2,3-d]pyrimidin-5-yl]carbonyl}pyridin-4-yl)-2-[3-(trifluoromethoxy)phenyl]acetamide], the concentration for half-maximal inhibition (IC50) is 0.876 µM.

In the case of `O=C(Cc1ccc(OC(F)(F)F)cc1)Nc1ccnc(C(=O)c2cn(C(CO)CO)c3ncncc23)c1` [Example 98, N-(2-{[7-(1,3-dihydroxypropan-2-yl)-7H-pyrrolo[2,3-d]pyrimidin-5-yl]carbonyl}pyridin-4-yl)-2-[4-(trifluoromethoxy)phenyl]acetamide], the half-inhibitory concentration (IC50) worked out at 1.5 µM.

With `O=C(Cc1ccc(Cl)c(Cl)c1)Nc1ccnc(C(=O)c2cn(C(CO)CO)c3ncncc23)c1` [Example 99, 2-(3,4-dichlorophenyl)-N-(2-{[7-(1,3-dihydroxypropan-2-yl)-7H-pyrrolo[2,3-d]pyrimidin-5-yl]carbonyl}pyridin-4-yl)acetamide], the IC50 came to 0.43 µM.

Turning to `O=C(Cc1ccc(Cl)cn1)Nc1ccnc(C(=O)c2cn(C(CO)CO)c3ncncc23)c1` [Example 100, 2-(5-chloropyridin-2-yl)-N-(2-{[7-(1,3-dihydroxypropan-2-yl)-7H-pyrrolo[2,3-d]pyrimidin-5-yl]carbonyl}pyridin-4-yl)acetamide], the IC50 was 2.19 µM.

With `O=C(Cn1ccc(C(F)(F)F)n1)Nc1ccnc(C(=O)c2cn(C(CO)CO)c3ncncc23)c1` [Example 101, N-(2-{[7-(1,3-dihydroxypropan-2-yl)-7H-pyrrolo[2,3-d]pyrimidin-5-yl]carbonyl}pyridin-4-yl)-2-[3-(trifluoromethyl)-1H-pyrazol-1-yl]acetamide], the concentration for half-maximal inhibition (IC50) was found to be 0.247 µM.

With `CC(CO)(CO)n1cc(C(=O)c2cc(NC(=O)Cc3ccc(Cl)cc3)ccn2)c2cncnc21` [Example 102, 2-(4-chlorophenyl)-N-(2-{[7-(1,3-dihydroxy-2-methylpropan-2-yl)-7H-pyrrolo[2,3-d]pyrimidin-5-yl]carbonyl}pyridin-4-yl)acetamide], the half-inhibitory concentration (IC50) was determined as 0.0966 µM.

Regarding `CC(CO)(CO)n1cc(C(=O)c2cc(NC(=O)Cc3ccc(C(F)(F)F)cc3)ccn2)c2cncnc21` [Example 103, N-(2-{[7-(1,3-dihydroxy-2-methylpropan-2-yl)-7H-pyrrolo[2,3-d]pyrimidin-5-yl]carbonyl}pyridin-4-yl)-2-[4-(trifluoromethyl)phenyl]acetamide], the 50% inhibitory concentration (IC50) amounted to 0.0136 µM.

Turning to `CC(CO)(CO)n1cc(C(=O)c2cc(NC(=O)Cc3cccc(C(F)(F)F)c3)ccn2)c2cncnc21` [Example 104, N-(2-{[7-(1,3-dihydroxy-2-methylpropan-2-yl)-7H-pyrrolo[2,3-d]pyrimidin-5-yl]carbonyl}pyridin-4-yl)-2-[3-(trifluoromethyl)phenyl]acetamide], the 50% inhibitory concentration (IC50) was determined as 0.0911 µM.

`CC(CO)(CO)n1cc(C(=O)c2cc(NC(=O)Cn3ccc(C(F)(F)F)n3)ccn2)c2cncnc21` [Example 105, N-(2-{[7-(1,3-dihydroxy-2-methylpropan-2-yl)-7H-pyrrolo[2,3-d]pyrimidin-5-yl]carbonyl}pyridin-4-yl)-2-[3-(trifluoromethyl)-1H-pyrazol-1-yl]acetamide]: the IC50 was 0.0727 µM.

For `CC(CO)(CO)n1cc(C(=O)c2cc(NC(=O)Cc3ccc(Cl)cn3)ccn2)c2cncnc21` [Example 106, 2-(5-chloropyridin-2-yl)-N-(2-{[7-(1,3-dihydroxy-2-methylpropan-2-yl)-7H-pyrrolo[2,3-d]pyrimidin-5-yl]carbonyl}pyridin-4-yl)acetamide], the half-inhibitory concentration (IC50) came to 0.663 µM.

Consider `CC(CO)(CO)n1cc(C(=O)c2cc(NC(=O)Cc3ccc(C#N)cc3)ccn2)c2cncnc21` [Example 107, 2-(4-cyanophenyl)-N-(2-{[7-(1,3-dihydroxy-2-methylpropan-2-yl)-7H-pyrrolo[2,3-d]pyrimidin-5-yl]carbonyl}pyridin-4-yl)acetamide], for which the IC50 came to 0.467 µM.

Consider `Cc1cc(C(F)(F)F)nn1CC(=O)Nc1ccnc(C(=O)c2cn(C(C)(CO)CO)c3ncncc23)c1` [Example 108, N-(2-{[7-(1,3-dihydroxy-2-methylpropan-2-yl)-7H-pyrrolo[2,3-d]pyrimidin-5-yl]carbonyl}pyridin-4-yl)-2-[5-methyl-3-(trifluoromethyl)-1H-pyrazol-1-yl]acetamide], for which the half-maximal inhibitory concentration (IC50) worked out at 0.369 µM.

Regarding `CC(C)n1cc(C(=O)c2cc(NC(=O)Cc3ccc(C#N)cn3)ccn2)c2cncnc21` [Example 109, 2-(5-Cyanopyridin-2-yl)-N-{2-[(7-isopropyl-7H-pyrrolo[2,3-d]pyrimidin-5-yl)carbonyl]pyridin-4-yl}acetamide], the 50% inhibitory concentration (IC50) is 0.0536 µM.

On to `CC(C)(CO)n1cc(C(=O)c2ccnc(NC(=O)Cc3ccc(C#N)cc3)c2)c2cncnc21` [Example 111, 2-(4-cyanophenyl)-N-(4-{[7-(1-hydroxy-2-methylpropan-2-yl)-7H-pyrrolo[2,3-d]pyrimidin-5-yl]carbonyl}pyridin-2-yl)acetamide], for which the IC50 worked out at 0.0318 µM.

Consider `Cc1cc(C)n(CC(=O)Nc2cc(C(=O)c3cn(C(CO)CO)c4ncncc34)ccn2)n1` [Example 112, 2-(3,5-Dimethyl-1H-pyrazol-1-yl)-N-[4-({7-[2-hydroxy-1-(hydroxymethyl)ethyl]-7H-pyrrolo[2,3-d]pyrimidin-5-yl}carbonyl)pyridin-2-yl]acetamide], for which the IC50 was found to be 0.682 µM.

Consider `O=C(Cc1ccc(Cl)cc1)Nc1cc(C(=O)c2cn(C(CO)CO)c3ncncc23)ccn1` [Example 113, 2-(4-Chlorophenyl)-N-[4-({7-[2-hydroxy-1-(hydroxymethyl)ethyl]-7H-pyrrolo[2,3-d]pyrimidin-5-yl}carbonyl)pyridin-2-yl]acetamide], for which the half-inhibitory concentration (IC50) is 0.0589 µM.

As to `N#Cc1ccc(CC(=O)Nc2cc(C(=O)c3cn(C(CO)CO)c4ncncc34)ccn2)cc1` [Example 114, 2-(4-cyanophenyl)-N-(4-{[7-(1,3-dihydroxypropan-2-yl)-7H-pyrrolo[2,3-d]pyrimidin-5-yl]carbonyl}pyridin-2-yl)acetamide], the IC50 amounted to 0.536 µM.

For `O=C(Cc1ccc(Cl)cc1)Nc1cc(C(=O)c2cn(CC3(CO)COC3)c3ncncc23)ccn1` [Example 115, 2-(4-Chlorophenyl)-N-{4-[(7-{[3-(hydroxymethyl)oxetan-3-yl]methyl}-7H-pyrrolo[2,3-d]pyrimidin-5-yl)carbonyl}pyridin-2-yl]acetamide], the IC50 was 0.126 µM.

For the molecule `CC(C)n1cc(C(=O)c2ccnc(NC(=O)Cn3cc(C(F)(F)F)nn3)c2)c2cncnc21` [Example 116, N-(4-{[7-(propan-2-yl)-7H-pyrrolo[2,3-d]pyrimidin-5-yl]carbonyl}pyridin-2-yl)-2-[4-(trifluoromethyl)-1H-1,2,3-triazol-1-yl]acetamide], the IC50 is 0.0597 µM.

Take `COCc1cn(CC(=O)Nc2cc(C(=O)c3cn(C(C)C)c4ncncc34)ccn2)nn1` [Example 117, 2-[4-(methoxymethyl)-1H-1,2,3-triazol-1-yl]-N-(4-{[7-(propan-2-yl)-7H-pyrrolo[2,3-d]pyrimidin-5-yl]carbonyl}pyridin-2-yl)acetamide]: the IC50 stood at 1.55 µM.

In the case of `CC(C)n1cc(C(=O)c2ccnc(NC(=O)Cc3ccc(F)cc3F)c2)c2cncnc21` [Example 118, 2-(2,4-difluorophenyl)-N-(4-{[7-(propan-2-yl)-7H-pyrrolo[2,3-d]pyrimidin-5-yl]carbonyl}pyridin-2-yl)acetamide], the IC50 came to 0.00882 µM.

Regarding `CC(C)n1cc(C(=O)c2ccnc(NC(=O)Cc3ccccc3OC(F)(F)F)c2)c2cncnc21` [Example 119, N-(4-{[7-(propan-2-yl)-7H-pyrrolo[2,3-d]pyrimidin-5-yl]carbonyl}pyridin-2-yl)-2-[2-(trifluoromethoxy)phenyl]acetamide], the IC50 came out at 0.0711 µM.
